Results published in patent US20230167073A1 (Teijin Pharma Limited, priority 2020, published 2023).

Molecular target: T1, Human TRPC6 (Homo sapiens, UniProt Q9Y210)
T1 construct: expressed in transfected cells
T1 sequence (Q9Y210 1-931): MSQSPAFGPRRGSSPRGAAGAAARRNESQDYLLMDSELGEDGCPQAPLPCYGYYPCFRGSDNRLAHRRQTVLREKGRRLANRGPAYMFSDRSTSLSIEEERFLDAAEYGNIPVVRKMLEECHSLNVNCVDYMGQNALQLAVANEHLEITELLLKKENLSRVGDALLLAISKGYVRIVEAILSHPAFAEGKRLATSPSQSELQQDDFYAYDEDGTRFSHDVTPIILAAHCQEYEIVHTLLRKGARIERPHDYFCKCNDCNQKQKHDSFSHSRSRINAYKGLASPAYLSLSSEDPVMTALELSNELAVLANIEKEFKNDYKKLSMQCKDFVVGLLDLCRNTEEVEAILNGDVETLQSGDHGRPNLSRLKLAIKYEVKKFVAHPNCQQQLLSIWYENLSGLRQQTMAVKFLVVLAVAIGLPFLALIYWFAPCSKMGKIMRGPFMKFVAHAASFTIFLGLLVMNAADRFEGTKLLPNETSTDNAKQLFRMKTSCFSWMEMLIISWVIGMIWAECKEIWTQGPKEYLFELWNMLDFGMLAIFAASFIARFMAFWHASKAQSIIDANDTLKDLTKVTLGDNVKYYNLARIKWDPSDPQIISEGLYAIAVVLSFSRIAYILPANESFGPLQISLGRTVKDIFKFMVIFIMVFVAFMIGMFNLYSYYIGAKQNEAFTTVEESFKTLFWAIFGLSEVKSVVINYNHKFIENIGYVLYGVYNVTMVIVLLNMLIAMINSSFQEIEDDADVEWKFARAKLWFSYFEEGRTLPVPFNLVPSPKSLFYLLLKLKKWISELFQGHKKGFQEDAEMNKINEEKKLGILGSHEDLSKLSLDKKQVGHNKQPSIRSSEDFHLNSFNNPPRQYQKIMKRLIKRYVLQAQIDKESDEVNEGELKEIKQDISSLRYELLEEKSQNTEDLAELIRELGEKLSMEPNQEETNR
Experiment: Evaluation of TRPC6 channel inhibitory activity (1), FLIPR Calcium 5 Assay Kit, OAG stimulation (Compound Nos. 1-1293)
Assay type: cell-based
Conditions: Human TRPC6 stably-expressing cells, OAG 30 μM, FLIPR Calcium 5 Assay Kit; read-out: Inhibitory activity (pIC50 class) (converted)
How it was run: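 Calcium influx read by FLIPR fluorescence in cells stably expressing human TRPC6, dye-loaded 30 min. Compounds preincubated 20 min, then OAG stimulation at 30 μM final. Inhibition fitted by four-parameter logistic regression to give pIC50, reported as +/++/+++ categories.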

| IC50 [nM] | Structure (SMILES) |
| --- | --- |
| > 1000 | CC(C)CNC(=O)c1cncn1Cc1cc(C#N)ccc1-c1ccc(CCN)cc1 [compound 1115, 3-[[2-[4-(2-aminoethyl)phenyl]-5-cyanophenyl]methyl]-N-(2-methylpropyl)imidazole-4-carboxamide] |
| 10 to 1000 | Cc1nc(Oc2cc(C#N)ccc2-n2cc(CCN)cn2)cc(N2CCOCC2)n1 [Compound 259, 4-[4-(2-aminoethyl)pyrazol-1-yl]-3-(2-methyl-6-morpholin-4-ylpyrimidin-4-yl)oxybenzonitrile] |
| < 10 | CCN(CC)c1cc(C(=O)c2cc(C#N)ccc2-c2ncc(CN)cn2)n(C)n1 [compound 1061, 4-[5-(aminomethyl)pyrimidin-2-yl]-3-[5-(diethylamino)-2-methylpyrazole-3-carbonyl]benzonitrile] |
| 10 to 1000 | N#Cc1ccc(-c2ncc(CCN)cn2)c(Oc2nnc(-c3ccncc3)s2)c1 [compound 730, 4-[5-(2-aminoethyl)pyrimidin-2-yl]-3-[(5-pyridin-4-yl-1,3,4-thiadiazol-2-yl)oxy]benzonitrile] |
| 10 to 1000 | Cc1nc(Oc2cc(C#N)ccc2-c2ccc(CCN)cc2)cc(N2CCCC(F)(F)C2)n1 [Compound 19, 4-[4-(2-aminoethyl)phenyl]-3-[6-(3,3-difluoropiperidin-1-yl)-2-methylpyrimidin-4-yl]oxybenzonitrile] |
| 10 to 1000 | Cc1nc(Oc2cc(C#N)ccc2-c2ccc([C@H](O)CN)cn2)cc(N2C[C@@H](C)O[C@@H](C)C2)n1 [compound 523, 4-[5-[(1S)-2-amino-1-hydroxyethyl]pyridin-2-yl]-3-[6-[(2S,6R)-2,6-dimethylmorpholin-4-yl]-2-methylpyrimidin-4-yl]oxybenzonitrile] |
| 10 to 1000 | C=C(c1cc(N2CCOCC2)nc(C)n1)c1cc(C#N)ccc1-c1ccc(CCN)cc1 [compound 1228, 4-[4-(2-aminoethyl)phenyl]-3-[1-(2-methyl-6-morpholin-4-ylpyrimidin-4-yl)ethenyl]benzonitrile] |
| > 1000 | Cn1nc(C2CC2)cc1Oc1cc(C#N)ccc1-c1ncc(C2(N)CC2)cn1 [compound 463, 4-[5-(1-aminocyclopropyl)pyrimidin-2-yl]-3-(5-cyclopropyl-2-methylpyrazol-3-yl)oxybenzonitrile] |
| > 1000 | Cn1nc(C2CC2)cc1Oc1cc(C#N)ccc1-c1cc(NCCCO)ccn1 [compound 586, 3-(5-cyclopropyl-2-methylpyrazol-3-yl)oxy-4-[4-(3-hydroxypropylamino)pyridin-2-yl]benzonitrile] |
| > 1000 | Cn1nc(C2CC2)cc1Oc1cc(C#N)ccc1-c1cc(C(=O)N2CCC[C@H](N)C2)ccn1 [compound 555, 4-[4-[(3S)-3-aminopiperidine-1-carbonyl]pyridin-2-yl]-3-(5-cyclopropyl-2-methylpyrazol-3-yl)oxybenzonitrile] |
| < 10 | Cc1nn(CC(F)(F)F)cc1Oc1cc(C#N)ccc1-c1ncc(CN)cn1 [compound 835, 4-[5-(aminomethyl)pyrimidin-2-yl]-3-[3-methyl-1-(2,2,2-trifluoroethyl)pyrazol-4-yl]oxybenzonitrile] |
| < 10 | N#Cc1ccc(-c2ccc(CCN)cn2)c(Cn2cnc(-c3ccccc3Cl)c2)c1 [compound 1144, 4-[5-(2-aminoethyl)pyridin-2-yl]-3-[[4-(2-chlorophenyl)imidazol-1-yl]methyl]benzonitrile] |
| < 10 | Cn1nc(-c2nccs2)cc1Oc1cc(C#N)ccc1-c1ccc(CCN)cn1 [compound 390, 4-[5-(2-aminoethyl)pyridin-2-yl]-3-[2-methyl-5-(1,3-thiazol-2-yl)pyrazol-3-yl]oxybenzonitrile] |
| 10 to 1000 | Cc1cc(Oc2cc(C#N)ccc2-c2ccc(OC3CNC3)cn2)cc(N2CCOCC2)n1 [compound 564, 4-[5-(azetidin-3-yloxy)pyridin-2-yl]-3-(2-methyl-6-morpholin-4-ylpyridin-4-yl)oxybenzonitrile] |
| 10 to 1000 | Cc1nn(CC(C)C)cc1Cc1cc(F)ccc1-c1ncc(CCN)cn1 [compound 1224, 2-[2-[4-fluoro-2-[[3-methyl-1-(2-methylpropyl)pyrazol-4-yl]methyl]phenyl]pyrimidin-5-yl]ethanamine] |
| < 10 | CC(C)Cn1cc(Cc2cc(C#N)ccc2-c2ncc(CCN)cn2)cn1 [Compound No. 1195, 4-[5-(2-Aminoethyl)pyrimidin-2-yl]-3-[[1-(2-methylpropyl)pyrazol-4-yl]methyl]benzonitrile] |
| < 10 | CCc1cc(Oc2cc(C#N)ccc2-c2ccc(CN)cn2)n(C)n1 [compound 326, 4-[5-(aminomethyl)pyridin-2-yl]-3-(5-ethyl-2-methylpyrazol-3-yl)oxybenzonitrile] |
| < 10 | Cn1nc(-c2ccncn2)cc1Oc1cc(C#N)ccc1-c1ncc(CCN)cn1 [compound 949, 4-[5-(2-aminoethyl)pyrimidin-2-yl]-3-(2-methyl-5-pyrimidin-4-ylpyrazol-3-yl)oxybenzonitrile] |
| 10 to 1000 | N#Cc1ccc(-c2ncc(CCN)cn2)c(C(=O)c2cnc(N3CCOCC3)o2)c1 [compound 1084, 4-[5-(2-aminoethyl)pyrimidin-2-yl]-3-(2-morpholin-4-yl-1,3-oxazole-5-carbonyl)benzonitrile] |
| 10 to 1000 | Cc1nc(Oc2cc(C#N)ccc2-c2ccc(CC3(N)COC3)cn2)cc(N2CCCC2)n1 [compound 616, 4-[5-[(3-aminooxetan-3-yl)methyl]pyridin-2-yl]-3-(2-methyl-6-pyrrolidin-1-ylpyrimidin-4-yl)oxybenzonitrile] |
| 10 to 1000 | Cc1nc(Oc2cc(C#N)ccc2-c2ncc(CCN)cn2)cc(N2CCC2)n1 [compound 853, 4-[5-(2-aminoethyl)pyrimidin-2-yl]-3-[6-(azetidin-1-yl)-2-methylpyrimidin-4-yl]oxybenzonitrile] |
| > 1000 | Cc1cc(Oc2nc(C#N)ccc2-c2ncc(CN)cn2)cc(-c2ccccn2)n1 [compound 1286, 5-[5-(aminomethyl)pyrimidin-2-yl]-6-(2-methyl-6-pyridin-2-ylpyridin-4-yl)oxypyridine-2-carbonitrile] |
| > 1000 | Cc1cc(Oc2cc(C#N)ccc2-c2ncc(CNC(C)(C)C)cn2)cc(N2CCOCC2)n1 [compound 661, 4-[5-[(tert-butylamino)methyl]pyrimidin-2-yl]-3-(2-methyl-6-morpholin-4-ylpyridin-4-yl)oxybenzonitrile] |
| < 10 | CC(C)Cc1cc(Oc2cc(C#N)ccc2-c2ccc(C(O)CN)cc2)n(C)n1 (stereo not drawn) [Compound 212, 4-[4-(2-amino-1-hydroxyethyl)phenyl]-3-[2-methyl-5 (2-methylpropyl)pyrazol-3-yl]oxybenzonitrile] |
| 10 to 1000 | N#Cc1ccc(-c2ncc([C@H](O)CN)cn2)c(Oc2cc(C3CC3)nn2CC(F)(F)F)c1 [compound 411, 4-[5-[(1S)-2-amino-1-hydroxyethyl]pyrimidin-2-yl]-3-[5-cyclopropyl-2-(2,2,2-trifluoroethyl)pyrazol-3-yl]oxybenzonitrile] |
| < 10 | CNC[C@H](O)c1cnn(-c2ccc(C#N)cc2Oc2cc(-c3ccccc3)nc(C)n2)c1 [Compound 231, 4-[4-[(1R)-1-hydroxy-2-(methylamino)ethyl]pyrazol-1-yl]-3-(2-methyl-6-phenylpyrimidin-4-yl)oxybenzonitrile] |
| 10 to 1000 | Cn1nc(-c2ccccc2)cc1Oc1cc(Cl)ncc1-c1ccc(CCN)cn1 [compound 1290, 2-[6-[6-chloro-4-(2-methyl-5-phenylpyrazol-3-yl)oxypyridin-3-yl]pyridin-3-yl]ethanamine] |
